Patent publication US10752584B2 (EMORY UNIVERSITY, priority 2016, dated 2020)
pEC50: −log10 of the molar value. Like-named read-outs stand apart in the source and are kept apart here.

Legend:
Type in all cases: cell-based
[1] = Cellular toxicity assay in HepG2 cells; conditions: human, read-out: Cytotoxicity
Procedure: (§1) The toxicity of the compounds was assessed in Vero, human PBM, CEM (human lymphoblastoid), MT-2, and HepG2 cells, as described previously (see Schinazi R. F., Sommadossi J.-P., Saalmann V., Cannon D. L., Xie M.-Y., Hart G. C., Smith G. A. & Hahn E. F. Antimicrob. Agents Chemother. 1990, 34, 1061-67). Cycloheximide was included as positive cytotoxic control, and untreated cells exposed to solvent were included as negative controls. The cytotoxicity IC50 was obtained from the concentration-response curve using the median effective method described previously (see Chou T.-C. & Talalay P. Adv. Enzyme Regul. 1984, 22, 27-55; Belen'kii M. S. & Schinazi R. F. Antiviral Res. 1994, 25, 1-11).

[2] = Cellular toxicity assay in CEM cells; conditions: human, read-out: Cytotoxicity
Procedure: as §1

[3] = Cellular toxicity assay in Vero cells; conditions: African green monkey, read-out: Cytotoxicity
Procedure: as §1

[4] = tested on: wild type HBV; assay: Anti-HBV assay in AD-38 cell line; conditions: Hepatitis B virus; for pEC50: read-out: Anti-HBV activity EC50; for EC90: read-out: Anti-HBV activity EC90
Procedure: The anti-HBV activity of the compounds was determined by treating the AD-38 cell line carrying wild type HBV under the control of tetracycline (see Ladner S. K., Otto M. J., Barker C. S., Zaifert K., Wang G. H., Guo J. T., Seeger C. & King R. W. Antimicrob. Agents Chemother. 1997, 41, 1715-20). Removal of tetracycline from the medium [Tet (−)] results in the production of HBV. The levels of HBV in the culture supernatant fluids from cells treated with the compounds were compared with that of the untreated controls. Control cultures with tetracycline [Tet (+)] were also maintained to determine the basal levels of HBV expression. 3TC was included as positive control.
The median effective concentrations (EC50) ranges of several of the compounds described herein against HBV are shown in Table 3: […]

[5] = Cellular toxicity assay in human PBM cells; conditions: human, read-out: Cytotoxicity
Procedure: as §1

[6] = AD-38 cells, HBV in culture supernatant

## C#CCNC(=O)C(=O)c1c(C)c(C(=O)Nc2ccc(F)c(C#N)c2)n(C)c1C [Compound 7b, N-(3-cyano-4-fluorophenyl)-1,3,5-trimethyl-4-(2-oxo-2-(prop-2-yn-1-ylamino)acetyl)-1H-pyrrole-2-carboxamide]
[1]
  CC50: > 100 µM
[2]; CEM lymphoblastoid cells
  CC50: > 100 µM
[3]
  CC50: > 100 µM
[4]; [6]
  pEC50: 7.05 to 8.00
  EC90: 0.1 to 0.9 µM
[5]; human PBM cells
  CC50: > 100 µM

## C=CCn1cc(CNC(=O)C(=O)c2c(C)c(C(=O)Nc3ccc(F)c(F)c3)n(C)c2C)nn1 [Compound 8]
[1]
  CC50: 98.6 µM
[2]
  CC50: 45.4 µM
[3]
  CC50: > 100 µM
[4]
  pEC50: 8.05 to 9.00
  EC90: 0.01 to 0.09 µM
[5]
  CC50: 60.5 µM

## C#CCNS(=O)(=O)c1cc(C(=O)Nc2ccc(F)c(F)c2)n(C)c1 [Compound 17, N-(3,4-Difluorophenyl)-1-methyl-4-(N-(prop-2-yn-1-yl)sulfamoyl)-1H-pyrrole-2-carboxamide]
[2]; CEM lymphoblastoid cells
  CC50: 53 µM
[3]
  CC50: 41 µM
[4]; [6]
  pEC50: 6.05 to 7.00
  EC90: 1 to 9 µM
[5]; human PBM cells
  CC50: > 100 µM

## C=CCNC(=O)C(=O)c1cc(C(=O)Nc2ccc(F)c(F)c2)n(C)c1 [Compound 25, 4-(2-(allylamino)-2-oxoacetyl)-N-(3,4-difluorophenyl)-1-methyl-1H-pyrrole-2-carboxamide]
[1]
  CC50: > 100 µM
[2]; CEM lymphoblastoid cells
  CC50: > 100 µM
[3]
  CC50: 68.1 µM
[4]; [6]
  pEC50: 7.05 to 8.00
  EC90: 1 to 9 µM
[5]; human PBM cells
  CC50: > 100 µM

## Cn1cc(C(=O)C(=O)Nc2nccs2)cc1C(=O)Nc1ccc(F)c(F)c1 [Compound 26, N-(3,4-difluorophenyl)-1-methyl-4-(2-oxo-2-(thiazol-2-ylamino)acetyl)-1H-pyrrole-2-carboxamide]
[1]
  CC50: > 100 µM
[2]; CEM lymphoblastoid cells
  CC50: > 100 µM
[3]
  CC50: 31.2 µM
[4]; [6]
  pEC50: 6.05 to 7.00
  EC90: 1 to 9 µM
[5]; human PBM cells
  CC50: > 100 µM

## Cn1cc(C(=O)C(=O)NOC2CCCC2)cc1C(=O)Nc1ccc(F)c(F)c1 [Compound 27, 4-(2-((cyclopentyloxy)amino)-2-oxoacetyl)-N-(3,4-difluorophenyl)-1-methyl-1H-pyrrole-2-carboxamide]
[1]
  CC50: > 100 µM
[2]; CEM lymphoblastoid cells
  CC50: 37.9 µM
[3]
  CC50: 80.1 µM
[4]; [6]
  pEC50: 7.05 to 8.00
  EC90: 1 to 9 µM

## Cn1cc(C(=O)C(=O)Nc2ccccc2)cc1C(=O)Nc1ccc(F)c(F)c1 [Compound 28, N-(3,4-difluorophenyl)-1-methyl-4-(2-oxo-2-(phenylamino)acetyl)-1H-pyrrole-2-carboxamide]
[1]
  CC50: > 100 µM
[2]; CEM lymphoblastoid cells
  CC50: > 100 µM
[3]
  CC50: 13.4 µM
[4]; [6]
  pEC50: 7.05 to 8.00
  EC90: 1 to 9 µM

## Cn1cc(C(=O)C(=O)NCC#N)cc1C(=O)Nc1ccc(F)c(F)c1 [Compound 30, 4-(2-((cyanomethyl)amino)-2-oxoacetyl)-N-(3,4-difluorophenyl)-1-methyl-1H-pyrrole-2-carboxamide]
[1]
  CC50: > 100 µM
[2]; CEM lymphoblastoid cells
  CC50: > 100 µM
[3]
  CC50: 91.4 µM
[4]; [6]
  pEC50: 5.05 to 6.00
  EC90: 1 to 9 µM

## Cn1cc(C(=O)C(=O)N2CCOCC2)cc1C(=O)Nc1ccc(F)c(F)c1 [Compound 31, N-(3,4-difluorophenyl)-1-methyl-4-(2-morpholino-2-oxoacetyl)-1H-pyrrole-2-carboxamide]
[1]
  CC50: 93.9 µM
[2]; CEM lymphoblastoid cells
  CC50: > 100 µM
[3]
  CC50: 41.9 µM
[4]; [6]
  pEC50: 7.05 to 8.00
  EC90: 1 to 9 µM
[5]; human PBM cells
  CC50: > 100 µM

## Cn1cc(C(=O)C(=O)N2CC(F)(F)C2)cc1C(=O)Nc1ccc(F)c(F)c1 [Compound 32, 4-(2-(3,3-difluoroazetidin-1-yl)-2-oxoacetyl)-N-(3,4-difluorophenyl)-1-methyl-1H-pyrrole-2-carboxamide]
[1]
  CC50: > 100 µM
[2]; CEM lymphoblastoid cells
  CC50: > 100 µM
[3]
  CC50: > 100 µM
[4]; [6]
  pEC50: 5.05 to 6.00
  EC90: 1 to 9 µM
[5]; human PBM cells
  CC50: > 100 µM

## Cn1cc(NS(=O)(=O)c2ccccc2)cc1C(=O)Nc1ccc(F)c(F)c1 [Compound 36, N-(3,4-difluorophenyl)-1-methyl-4-(phenylsulfonamido)-1H-pyrrole-2-carboxamide]
[1]
  CC50: 43.5 µM
[2]; CEM lymphoblastoid cells
  CC50: 36.7 µM
[3]
  CC50: 22.9 µM
[4]; [6]
  pEC50: 6.05 to 7.00
  EC90: 1 to 9 µM
[5]; human PBM cells
  CC50: 13.9 µM

## Cc1c(C(=O)C(=O)NCc2c[nH]nn2)c(C)n(C)c1C(=O)Nc1ccc(F)c(F)c1 [Compound 38, 4-(2-(((1H-1,2,3-triazol-4-yl)methyl)amino)-2-oxoacetyl)-N-(3,4-difluorophenyl)-1,3,5-trimethyl-1H-pyrrole-2-carboxamide]
[1]
  CC50: 85 µM
[2]; CEM lymphoblastoid cells
  CC50: 29 µM
[3]
  CC50: 45 µM
[4]; [6]
  pEC50: 8.05 to 9.00
  EC90: 0.1 to 0.9 µM
[5]; human PBM cells
  CC50: > 100 µM

## Cc1c(C(=O)C(=O)Nc2ccccn2)c(C)n(C)c1C(=O)Nc1ccc(F)c(F)c1 [Compound 43, N-(3,4-difluorophenyl)-1,3,5-trimethyl-4-(2-oxo-2-(pyridin-2-ylamino)acetyl)-1H-pyrrole-2-carboxamide]
[1]
  CC50: > 100 µM
[2]; CEM lymphoblastoid cells
  CC50: 50 µM
[3]
  CC50: > 100 µM
[4]; [6]
  pEC50: 7.05 to 8.00
  EC90: 0.1 to 0.9 µM
[5]; human PBM cells
  CC50: > 100 µM

## Cc1c(C(=O)C(=O)N2CCN(C)CC2)c(C)n(C)c1C(=O)Nc1ccc(F)c(F)c1 [Compound 44, N-(3,4-difluorophenyl)-1,3,5-trimethyl-4-(2-(4-methylpiperazin-1-yl)-2-oxoacetyl)-1H-pyrrole-2-carboxamide]
[1]
  CC50: 90 µM
[2]; CEM lymphoblastoid cells
  CC50: 17 µM
[3]
  CC50: > 100 µM
[4]; [6]
  pEC50: 6.05 to 7.00
  EC90: 1 to 9 µM
[5]; human PBM cells
  CC50: 92 µM

## CCN(CC)C(=O)C(=O)c1c(C)c(C(=O)Nc2ccc(F)c(F)c2)n(C)c1C [Compound 45, 4-(2-(diethylamino)-2-oxoacetyl)-N-(3,4-difluorophenyl)-1,3,5-trimethyl-1H-pyrrole-2-carboxamide]
[1]
  CC50: 75 µM
[2]; CEM lymphoblastoid cells
  CC50: 36 µM
[3]
  CC50: 47 µM
[4]; [6]
  pEC50: 6.05 to 7.00
  EC90: 1 to 9 µM
[5]; human PBM cells
  CC50: 90 µM

## Cc1c(C(=O)C(=O)Nc2nc3ccccc3[nH]2)c(C)n(C)c1C(=O)Nc1ccc(F)c(F)c1 [Compound 46, 4-(2-((1H-benzo[d]imidazol-2-yl)amino)-2-oxoacetyl)-N-(3,4-difluorophenyl)-1,3,5-trimethyl-1H-pyrrole-2-carboxamide]
[1]
  CC50: 7 µM
[2]; CEM lymphoblastoid cells
  CC50: 38 µM
[3]
  CC50: 10 µM
[4]; [6]
  pEC50: 6.05 to 7.00
  EC90: 1 to 9 µM
[5]; human PBM cells
  CC50: > 100 µM

## Cc1c(C(=O)C(=O)NCc2ccccn2)c(C)n(C)c1C(=O)Nc1ccc(F)c(F)c1 [Compound 47, N-(3,4-difluorophenyl)-1,3,5-trimethyl-4-(2-oxo-2-((pyridin-2-ylmethyl)amino)acetyl)-1H-pyrrole-2-carboxamide]
[1]
  CC50: 35 µM
[2]; CEM lymphoblastoid cells
  CC50: 47 µM
[3]
  CC50: 51 µM
[4]; [6]
  pEC50: 7.05 to 8.00
  EC90: 0.1 to 0.9 µM
[5]; human PBM cells
  CC50: > 100 µM

## Cc1c(C(=O)C(=O)NCc2nccn2C)c(C)n(C)c1C(=O)Nc1ccc(F)c(F)c1 [Compound 48, N-(3,4-difluorophenyl)-1,3,5-trimethyl-4-(2-(((1-methyl-1H-imidazol-2-yl)methyl)amino)-2-oxoacetyl)-1H-pyrrole-2-carboxamide]
[1]
  CC50: 84 µM
[2]; CEM lymphoblastoid cells
  CC50: 27 µM
[3]
  CC50: > 100 µM
[4]; [6]
  pEC50: 8.05 to 9.00
  EC90: 0.01 to 0.09 µM
[5]; human PBM cells
  CC50: > 100 µM

## C#CCNC(=O)C(=O)c1c(C)c(C(=O)Nc2ccc(OC(F)(F)F)cc2)n(C)c1C [Compound 54, 1,3,5-trimethyl-4-(2-oxo-2-(prop-2-yn-1-ylamino)acetyl)-N-(4-(trifluoromethoxy)phenyl)-1H-pyrrole-2-carboxamide]
[2]; CEM lymphoblastoid cells
  CC50: 4 µM
[3]
  CC50: 6 µM
[4]; [6]
  pEC50: 5.05 to 6.00
[5]; human PBM cells
  CC50: 3 µM
